26 molecules from patent US20100029620A1, “SUBSTITUTED TRIAZOLINE, TETRAZOLONE AND IMIDAZOLONE DERIVATIVES FOR USE AS A MEDICINE” (JANSSEN PHARMACEUTICA N.V., priority 2004, published 2010) can be followed below.

Assay [1] addresses T1, human adrenergic-α2C receptor (Homo sapiens, UniProt P18825).
T1 construct: expressed in transfected cells; membrane preparation
T1 sequence (P18825 1-462): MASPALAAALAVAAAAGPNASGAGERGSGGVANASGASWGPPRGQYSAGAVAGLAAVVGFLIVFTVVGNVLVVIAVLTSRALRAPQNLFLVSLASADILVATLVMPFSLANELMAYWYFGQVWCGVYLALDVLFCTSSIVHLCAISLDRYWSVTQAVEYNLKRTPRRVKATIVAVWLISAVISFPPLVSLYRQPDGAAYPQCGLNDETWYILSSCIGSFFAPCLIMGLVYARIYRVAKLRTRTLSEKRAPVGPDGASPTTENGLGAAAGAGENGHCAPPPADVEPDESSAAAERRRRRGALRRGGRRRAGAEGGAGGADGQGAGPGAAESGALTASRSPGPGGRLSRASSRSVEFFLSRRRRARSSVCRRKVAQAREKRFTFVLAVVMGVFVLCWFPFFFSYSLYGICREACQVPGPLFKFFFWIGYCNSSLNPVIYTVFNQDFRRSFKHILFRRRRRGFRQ
Description: Radioligand binding experiment for α2C-adrenoceptor ([3H]-raulwolscine competition, CHO cell membranes). The note with it: [3H]raulwolscine 1 nM, membranes of CHO cells transfected with human α2C receptor; read-out: pIC50 α2C (converted). The procedure: (§1) The interaction of the compounds of Formula (I) with α2C-adrenoceptor receptors was assessed in in vitro radioligand binding experiments. In general, a low concentration of a radioligand with a high binding affinity for a particular receptor or transporter is incubated with a sample of a tissue preparation enriched in a particular receptor or transporter or with a preparation of cells expressing cloned human receptors in a buffered medium. During the incubation, the radioligand binds to the receptor or transporter. When equilibrium of binding is reached, the receptor bound radioactivity is separated from the non-bound radioactivity, and the receptor- or transporter-bound activity is counted. The interaction of the test compounds with the receptor is assessed in competition binding experiments. Various concentrations of the test compound are added to the incubation mixture containing the receptor- or transporter preparation and the radioligand. The test compound in proportion to its binding affinity and its concentration inhibits binding of the radioligand. The radioligand used for […] receptor binding was [^3H]-raulwolscine.
(§2) CHO cells, stabile transfected with human adrenergic-α2A-, -α2B or α2C receptor cDNA, were cultured in Dulbecco's Modified Eagle's Medium (DMEM)/Nutrient mixture Ham's F12 (ratio 1:1)(Gibco, Gent-Belgium) supplemented with 10% heat inactivated fetal calf serum (Life Technologies, Merelbeke-Belgium) and antibiotics (100 IU/ml penicillin G, 100 μg/ml streptomycin sulphate, 110 μg/ml pyruvic acid and 100 μg/ml L-glutamine). One day before collection, cells were induced with 5 mM sodiumbutyrate. Upon 80-90% of confluence, cells were scraped in phosphate buffered saline without Ca^2+ and Mg^2+ and collected by centrifugation at 1500×g for 10 min. The cells were homogenised in Tris-HCl 50 mM using an Ultraturrax homogenizer and centrifuged for 10 min at 23,500×g. The pellet was washed once by resuspension and rehomogenization and the final pellet was resuspended in Tris-HCl, divided in 1 ml aliquots and stored at −70° C.
(§3) Membranes were thawed and re-homogenized in incubation buffer (glycylglycine 25 mM, pH 8.0). In a total volume of 500 μl, 2-10 μg protein was incubated with [^3H]raulwolscine (NET-722) (New England Nuclear, USA) (1 nM final concentration) with or without competitor for 60 min at 25° C. followed by rapid filtration over GF/B filter using a Filtermate196 harvester (Packard, Meriden, Conn.). Filters were rinsed extensively with ice-cold rinsing buffer (Tris-HCl 50 mM pH 7.4). Filter-bound radioactivity was determined by scintillation counting in a Topcount (Packard, Meriden, CT) and results were expressed as counts per minute (cpm). Non-specific binding was determined in the presence of 1 μM oxymetazoline for hα2A- and hα2B receptors and 1 μM spiroxatrine for hα2C receptors.
(§4) Data from assays in the presence of compound were calculated as a percentage of total binding measured in the absence of test compound. Inhibition curves, plotting percent of total binding versus the log value of the concentration of the test compound, were automatically generated, and sigmoidal inhibition curves were fitted using non-linear regression. The pIC50 values of test compounds were derived from individual curves.

Assay [2] concerns the target T2, human adrenergic-α2B receptor (Homo sapiens, UniProt P18089).
T2 construct: expressed in transfected cells; membrane preparation
T2 sequence (P18089 1-450): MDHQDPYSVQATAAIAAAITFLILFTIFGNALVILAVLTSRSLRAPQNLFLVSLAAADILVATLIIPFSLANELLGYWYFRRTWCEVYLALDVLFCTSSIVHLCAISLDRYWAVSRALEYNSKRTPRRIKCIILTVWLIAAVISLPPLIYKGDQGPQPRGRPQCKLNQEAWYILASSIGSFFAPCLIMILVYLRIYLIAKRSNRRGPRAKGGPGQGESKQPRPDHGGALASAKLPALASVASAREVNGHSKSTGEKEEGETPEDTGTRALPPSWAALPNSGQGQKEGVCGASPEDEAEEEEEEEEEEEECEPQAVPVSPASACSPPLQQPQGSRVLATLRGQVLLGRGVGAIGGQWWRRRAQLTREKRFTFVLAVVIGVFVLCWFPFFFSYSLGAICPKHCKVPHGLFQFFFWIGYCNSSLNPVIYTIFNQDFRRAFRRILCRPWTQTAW
Description: Radioligand binding experiment for α2B-adrenoceptor ([3H]-raulwolscine competition, CHO cell membranes). The note with it: [3H]raulwolscine 1 nM, membranes of CHO cells transfected with human α2B receptor; read-out: pIC50 α2B (converted). The procedure:
as §1, §2, §3, §4

Assay [3] has as its target T3, human adrenergic-α2A receptor (Homo sapiens, UniProt P08913).
T3 construct: expressed in transfected cells; membrane preparation
T3 sequence (P08913 1-465): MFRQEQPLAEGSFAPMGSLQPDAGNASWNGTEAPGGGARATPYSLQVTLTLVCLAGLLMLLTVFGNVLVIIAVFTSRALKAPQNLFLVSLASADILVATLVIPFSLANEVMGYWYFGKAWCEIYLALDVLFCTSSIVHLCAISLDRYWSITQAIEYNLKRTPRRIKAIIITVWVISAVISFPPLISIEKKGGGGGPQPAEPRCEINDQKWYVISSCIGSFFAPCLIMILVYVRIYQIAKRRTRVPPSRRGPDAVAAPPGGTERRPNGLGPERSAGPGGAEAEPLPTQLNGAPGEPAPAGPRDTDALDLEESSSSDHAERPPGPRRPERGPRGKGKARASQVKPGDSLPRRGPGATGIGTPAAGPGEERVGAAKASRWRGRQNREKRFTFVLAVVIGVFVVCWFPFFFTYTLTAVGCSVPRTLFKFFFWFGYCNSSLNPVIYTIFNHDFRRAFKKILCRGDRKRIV
Description: Radioligand binding experiment for α2A-adrenoceptor ([3H]-raulwolscine competition, CHO cell membranes). The note with it: [3H]raulwolscine 1 nM, membranes of CHO cells transfected with human α2A receptor; read-out: pIC50 α2A (converted). How it is done: as §1, §2, §3, §4

`O=c1n(-c2ccc(CN3CCc4ccccc4C3)cc2)cnn1CCNCCOc1ccccc1` [compound 27]: the results for the IC50 in assay [1], in assay [2] and in assay [3] were 0.001 µM, 0.0794 µM and 0.0251 µM, respectively.
As to `O=c1n(CCNCCOc2ccccc2)cnn1-c1ccc(CN2CCOCC2)cc1` [compound 45], the figures for the IC50 in assay [1], in assay [2] and in assay [3] were 0.02 µM, 0.2 µM and 0.316 µM, respectively.
The like results for `CC(=O)N1CCc2cc(-n3cnn(CCNCCOc4ccccc4)c3=O)ccc2C1` [compound 100] were, in that order, 0.01 µM, 0.398 µM and 0.631 µM.
For `CC(NCCOc1ccccc1)C(C)n1ncn(-c2ccc(N3CCN(c4ccc(O)cc4)CC3)cc2)c1=O` (single isomer, unassigned) [compound 7] the same measures were 0.00794 µM, 0.126 µM and 0.126 µM.
The like results for `CC(C)N1CCN(c2ccc(-n3cnn(CC4CCN(CCOc5ccccc5)CC4)c3=O)cc2)CC1` [compound 53] were, in that order, 0.00501 µM, 0.00398 µM and 0.1 µM.
As to `O=c1n(-c2ccc(CN3CCC(O)CC3)cc2)cnn1CC1CCN(CCOc2ccccc2)CC1` [compound 65], the IC50 in assay [1] was 0.00126 µM; in assay [2], 0.02 µM; in assay [3], 0.0794 µM.
For `O=c1n(CC2CCN(CCOc3ccccc3)CC2)cnn1CCN1CCCCC1` [compound 66] the same measures were 0.00251 µM, 0.0501 µM and 0.0398 µM.
With `CN1CCCN(Cc2ccc(-n3cnn(CCNCCOc4ccccc4)c3=O)cc2)CC1` [compound 13], the values for the IC50 in assay [1], in assay [2] and in assay [3] were 0.001 µM, 0.0631 µM and 0.0631 µM, respectively.
Turning to `O=c1n(-c2ccc(NCc3ccc(F)cc3)cc2)cnn1CCNCCOc1ccccc1` [compound 89], the results for the IC50 in assay [1], in assay [2] and in assay [3] were 0.002 µM, 0.126 µM and 0.251 µM, respectively.
Turning to `CN(CCNc1ccc(-n2cnn(CC3CCN(CCOc4ccccc4)CC3)c2=O)cc1)CC1CCCCC1` [compound 42], the IC50 in assay [1] is 0.001 µM; in assay [2], 0.00794 µM; in assay [3], 0.0251 µM.
Regarding `CC(NCCOc1ccccc1)C(C)n1ncn(-c2ccc(N3CCN(c4ccc(O)cc4)CC3)cc2)c1=O` (racemic) [compound 5], the IC50 in assay [1] was 0.01 µM; in assay [2], 0.501 µM; in assay [3], 0.501 µM.
As for `C/C(=C\c1ccccc1)CN1CCC(n2cnn(CCN(C)CCOc3ccccc3)c2=O)CC1` [compound 30], the IC50 in assay [1] is 0.0158 µM; in assay [2], 0.2 µM; in assay [3], 0.398 µM.
For `O=c1n(-c2ccc(CNCc3ccccc3)cc2)cnn1CCNCCOc1ccccc1` [compound 92] the same measures were 0.00501 µM, 0.2 µM and 0.0251 µM.
The like results for `CC(NCCOc1ccccc1)C(C)n1ncn(-c2ccc(N3CCN(c4ccc(O)cc4)CC3)cc2)c1=O` (single isomer, unassigned) [compound 4] were, in that order, 0.00631 µM, 0.2 µM and 2.51 µM.
For `O=c1n(-c2ccc(CNCc3ccccn3)cc2)cnn1CCNCCOc1ccccc1` [compound 96] the same measures were 0.00316 µM, 0.2 µM and 0.0398 µM.
For the molecule `O=c1n(-c2ccc(CNCCc3ccccc3)cc2)cnn1CCNCCOc1ccccc1` [compound 90], the IC50 in assay [1] is 0.000631 µM; in assay [2], 0.0501 µM; in assay [3], 0.02 µM.
Regarding `O=c1n(CC2CCN(CCOc3ccccc3)CC2)nnn1-c1ccc(CN2CCOCC2)cc1` [compound 104], the IC50 is 0.00501 µM in assay [1], 0.0794 µM in assay [2] and 0.0631 µM in assay [3].
The like results for `C/C(=C\c1ccccc1)CN1CCC(Cn2ncn(-c3ccc(NCCN(C)C)cc3)c2=O)CC1` [compound 39] were, in that order, 0.01 µM, 0.00794 µM and 0.0631 µM.
The like results for `O=c1n(CCNCCOc2ccccc2)nnn1-c1ccc(CN2CCC(O)CC2)cc1` [compound 107] were, in that order, 0.02 µM, 0.398 µM and 0.501 µM.
For `NCc1ccc(Cn2cnn(C3CCN(CCOc4ccccc4)CC3)c2=O)cc1` [compound 37] the same measures were 0.00398 µM, 0.0251 µM and 0.0398 µM.
With `O=C1c2ccccc2C(=O)N1CCCn1cnn(CC2CCN(CCOc3ccccc3)CC2)c1=O` [compound 84], the IC50 in assay [1] was 0.000631 µM; in assay [2] it was 0.02 µM; in assay [3], 0.0251 µM.
The like results for `O=C1c2ccccc2C(=O)N1CCCn1ncn(CC2CCN(CCOc3ccccc3)CC2)c1=O` [compound 82] were, in that order, 0.001 µM, 0.0158 µM and 0.0126 µM.
As to `CN(C)CCNc1ccc(-n2cnn(CCNCCOc3ccccc3)c2=O)cc1` [compound 86], the IC50 is 0.001 µM in assay [1], 0.0316 µM in assay [2] and 0.0398 µM in assay [3].
The like results for `O=c1n(-c2ccc3c(c2)CCN(Cc2ccc(F)cc2)C3)cnn1CCNCCOc1ccccc1` [compound 99] were, in that order, 0.01 µM, 0.2 µM and 0.251 µM.
As for `NCc1ccc(Cn2cnn(CCNCCOc3ccccc3)c2=O)cc1` [compound 85], the IC50 in assay [1] is 0.00631 µM; in assay [2], 0.126 µM; in assay [3] it was 0.126 µM.
For `COc1ccccc1C1CCN(C(C)C(C)n2ncn(-c3ccc(N4CCN(c5ccc(O)cc5)CC4)cc3)c2=O)C1` (stereo not drawn) [compound 55], the IC50 is 0.0158 µM in assay [1], 0.0501 µM in assay [2] and 1.26 µM in assay [3].
